# Measurements published in US11987588B2, “Modulators of the beta-3 adrenergic receptor useful for the treatment or prevention of heart failure and disorders related thereto” (Arena Pharmaceuticals, Inc., priority 2017, dated 2024).
# Target: Beta-3 Adrenergic Receptor (Homo sapiens (Human), UniProt P13945)
# Experiment: Homogeneous Time-Resolved Fluorescence (HTRF) cAMP antagonist assay, IC50 determination
# Assay type: cell-based
# Conditions: CHO-K1 cells stably expressing recombinant receptor, isoproterenol at EC90
# Procedure, shortened: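 Antagonist mode: isoproterenol at its predetermined EC90 added after compound to recombinant CHO-K1 cells in IBMX-containing PBS, 1 h, room temperature. Compounds tested as 5-fold, 10-point dilutions, top final typically 10 or 100 μM. HTRF signal converted to cAMP via standard curve, giving IC50.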
# Beta-3 Adrenergic Receptor, sequence (P13945 whole entry, species assumed): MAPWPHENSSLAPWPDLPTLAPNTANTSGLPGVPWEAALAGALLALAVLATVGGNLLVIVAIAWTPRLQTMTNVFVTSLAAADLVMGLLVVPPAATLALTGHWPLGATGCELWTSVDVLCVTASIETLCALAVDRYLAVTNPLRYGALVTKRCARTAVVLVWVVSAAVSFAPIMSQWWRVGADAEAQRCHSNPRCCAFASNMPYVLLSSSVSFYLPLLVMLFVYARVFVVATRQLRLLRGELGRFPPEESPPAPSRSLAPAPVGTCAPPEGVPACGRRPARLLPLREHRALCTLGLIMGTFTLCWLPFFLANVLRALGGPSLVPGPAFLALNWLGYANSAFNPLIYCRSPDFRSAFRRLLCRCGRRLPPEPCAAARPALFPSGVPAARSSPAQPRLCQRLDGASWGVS
row,SMILES,IC50 [µM]
1,"CNS(=O)(=O)c1cccc(OC[C@@H](O)CNC2COC3(CCN(S(=O)(=O)c4c(C)nn(C)c4Cl)CC3)C2)c1 (stereo partly drawn) [Compound 163, 3-((2S)-3-(8-(5-chloro-1,3-dimethyl-1H-pyrazol-4-ylsulfonyl)-1-oxa-8-azaspiro[4.5]decan-3-ylamino)-2-hydroxypropoxy)-N-methylbenzenesulfonamide]",0.0641
2,"CNS(=O)(=O)c1cccc(OC[C@@H](O)CNC2COC3(CCN(S(=O)(=O)c4ccc5c(c4)NCCO5)CC3)C2)c1 (stereo partly drawn) [Compound 355, 3-((2S)-3-(8-(3,4-dihydro-2H-benzo[b][1,4]oxazin-6-ylsulfonyl)-1-oxa-8-azaspiro[4.5]decan-3-ylamino)-2-hydroxypropoxy)-N-methylbenzenesulfonamide]",0.0172
3,"CNS(=O)(=O)c1cccc(OC[C@@H](O)CN[C@@H]2COC3(CCN(S(=O)(=O)c4cncc(-c5ccc(CN)cc5)c4)CC3)C2)c1 [Compound 374, 3-((S)-3-((S)-8-(5-(4-(aminomethyl)phenyl)pyridin-3-ylsulfonyl)-1-oxa-8-azaspiro[4.5]decan-3-ylamino)-2-hydroxypropoxy)-N-methylbenzenesulfonamide]",0.0157
4,"CNS(=O)(=O)c1cccc(OC[C@@H](O)CN[C@H]2COC3(CCN(S(=O)(=O)c4cc5c(nc4OC)OCCN5C)CC3)C2)c1 [Compound 476, 3-((S)-2-hydroxy-3-((R)-8-(6-methoxy-1-methyl-2,3-dihydro-1H-pyrido[2,3-b][1,4]oxazin-7-ylsulfonyl)-1-oxa-8-azaspiro[4.5]decan-3-ylamino)propoxy)-N-methylbenzenesulfonamide]",0.0389
5,"CNS(=O)(=O)c1cccc(OC[C@@H](O)CNC2COC3(CCN(S(=O)(=O)c4cccc(-c5cccc(S(C)(=O)=O)c5)c4)CC3)C2)c1 (stereo partly drawn) [Compound 71, 3-((2S)-2-hydroxy-3-(8-(3′-(methylsulfonyl)biphenyl-3-ylsulfonyl)-1-oxa-8-azaspiro[4.5]decan-3-ylamino)propoxy)-N-methylbenzenesulfonamide]",0.0312
6,"C[C@@H](NS(=O)(=O)c1cccc(OC[C@@H](O)CNC2COC3(CCN(S(=O)(=O)c4ccc5ccccc5c4)CC3)C2)c1)C(C)(C)C (stereo partly drawn) [Compound 100, N—((R)-3,3-dimethylbutan-2-yl)-3-((2S)-2-hydroxy-3-(8-(naphthalen-2-ylsulfonyl)-1-oxa-8-azaspiro[4.5]decan-3-ylamino)propoxy)benzenesulfonamide]",0.256
7,"CNS(=O)(=O)c1cccc(OC[C@@H](O)CN[C@H]2COC3(CCN(S(=O)(=O)c4cnc5ccc(F)cc5c4O)CC3)C2)c1 [Compound 534, 3-((S)-3-((R)-8-(6-fluoro-4-hydroxyquinolin-3-ylsulfonyl)-1-oxa-8-azaspiro[4.5]decan-3-ylamino)-2-hydroxypropoxy)-N-methylbenzenesulfonamide]",0.0208
8,"CCNS(=O)(=O)c1cccc(OC[C@@H](O)CNC2COC3(CCN(S(=O)(=O)c4cccc(-c5cnn(CC)c5)c4)CC3)C2)c1 (stereo partly drawn) [Compound 209, N-ethyl-3-((2S)-3-(8-(3-(1-ethyl-1H-pyrazol-4-yl)phenylsulfonyl)-1-oxa-8-azaspiro[4.5]decan-3-ylamino)-2-hydroxypropoxy)benzenesulfonamide]",0.041
9,"CCc1cnc(N2CCC3(CC2)C[C@@H](NC[C@H](O)COc2cccc(S(=O)(=O)NC)c2)CO3)nc1 [Compound 571, 3-((S)-3-((R)-8-(5-ethylpyrimidin-2-yl)-1-oxa-8-azaspiro[4.5]decan-3-ylamino)-2-hydroxypropoxy)-N-methylbenzenesulfonamide]",0.237
10,"CNS(=O)(=O)c1cccc(OC[C@@H](O)CNC2COC3(CCN(S(=O)(=O)c4cccc(Oc5ccccc5)c4)CC3)C2)c1 (stereo partly drawn) [Compound 124, 3-((2S)-2-hydroxy-3-(8-(3-phenoxyphenylsulfonyl)-1-oxa-8-azaspiro[4.5]decan-3-ylamino)propoxy)-N-methylbenzenesulfonamide]",0.0362
11,"CN(C)S(=O)(=O)c1cccc(OC[C@@H](O)CNC2COC3(CCN(S(=O)(=O)c4ccc(-c5ccccc5)s4)CC3)C2)c1 (stereo partly drawn) [Compound 255, 3-((2S)-2-hydroxy-3-(8-(5-phenylthiophen-2-ylsulfonyl)-1-oxa-8-azaspiro[4.5]decan-3-ylamino)propoxy)-N,N-dimethylbenzenesulfonamide]",0.0551
12,"NS(=O)(=O)c1cccc(OC[C@@H](O)CN[C@H]2COC3(CCN(S(=O)(=O)c4c[nH]c5cc(F)ccc5c4=O)CC3)C2)c1 [Compound 555, 3-((S)-3-((R)-8-(7-fluoro-4-oxo-1,4-dihydroquinolin-3-ylsulfonyl)-1-oxa-8-azaspiro[4.5]decan-3-ylamino)-2-hydroxypropoxy)benzenesulfonamide]",0.0213
13,"CNS(=O)(=O)c1cccc(OC[C@@H](O)CNC2COC3(CCN(S(=O)(=O)c4ccccc4OC)CC3)C2)c1 (stereo partly drawn) [Compound 398, 3-((2S)-2-hydroxy-3-(8-(2-methoxyphenylsulfonyl)-1-oxa-8-azaspiro[4.5]decan-3-ylamino)propoxy)-N-methylbenzenesulfonamide]",0.0513
14,"CNS(=O)(=O)c1cccc(OC[C@@H](O)CNC2COC3(CCN(S(=O)(=O)c4ccc(N5CCCCC5)nc4)CC3)C2)c1 (stereo partly drawn) [Compound 421, 3-((2S)-2-hydroxy-3-(8-(6-(piperidin-1-yl)pyridin-3-ylsulfonyl)-1-oxa-8-azaspiro[4.5]decan-3-ylamino)propoxy)-N-methylbenzenesulfonamide]",0.0169
15,"CNS(=O)(=O)c1cccc(OC[C@@H](O)CNC2COC3(CCN(S(=O)(=O)c4ccc5c(c4)NC(=O)CO5)CC3)C2)c1 (stereo partly drawn) [Compound 126, 3-((2S)-2-hydroxy-3-(8-(3-oxo-3,4-dihydro-2H-benzo[b][1,4]oxazin-6-ylsulfonyl)-1-oxa-8-azaspiro[4.5]decan-3-ylamino)propoxy)-N-methylbenzenesulfonamide]",0.013
16,"CNS(=O)(=O)c1cccc(OC[C@@H](O)CN[C@H]2COC3(CCN(S(=O)(=O)c4cc(-c5ccc(CN)cc5)ccc4OC(F)(F)F)CC3)C2)c1 [Compound 416, 3-((S)-3-((R)-8-(4′-(aminomethyl)-4-(trifluoromethoxy)biphenyl-3-ylsulfonyl)-1-oxa-8-azaspiro[4.5]decan-3-ylamino)-2-hydroxypropoxy)-N-methylbenzenesulfonamide]",0.262
17,"CNS(=O)(=O)c1cccc(OC[C@@H](O)CNC2COC3(CCN(S(=O)(=O)c4ccccc4C(F)(F)F)CC3)C2)c1 (stereo partly drawn) [Compound 33, 3-((2S)-2-hydroxy-3-(8-(2-(trifluoromethyl)phenylsulfonyl)-1-oxa-8-azaspiro[4.5]decan-3-ylamino)propoxy)-N-methylbenzenesulfonamide]",0.0176
18,"CNS(=O)(=O)c1cccc(OC[C@@H](O)CN[C@H]2COC3(CCN(S(=O)(=O)c4cnc5c(c4C)N(C)CCO5)CC3)C2)c1 [Compound 467, 3-((S)-3-((R)-8-(1,8-dimethyl-2,3-dihydro-1H-pyrido[2,3-b][1,4]oxazin-7-ylsulfonyl)-1-oxa-8-azaspiro[4.5]decan-3-ylamino)-2-hydroxypropoxy)-N-methylbenzenesulfonamide]",0.0334
19,"C[C@H](CO)NS(=O)(=O)c1cccc(OC[C@@H](O)CN[C@@H]2COC3(CCN(S(=O)(=O)c4cccc(-c5ccc(CN)cc5)c4)CC3)C2)c1 [Compound 424, 3-((S)-3-((S)-8-(4′-(aminomethyl)biphenyl-3-ylsulfonyl)-1-oxa-8-azaspiro[4.5]decan-3-ylamino)-2-hydroxypropoxy)-N—((R)-1-hydroxypropan-2-yl)benzenesulfonamide]",0.0513
20,"CNS(=O)(=O)c1cccc(OC[C@@H](O)CNC2COC3(CCN(S(=O)(=O)c4cccc(-c5ccc(C)nc5)c4)CC3)C2)c1 (stereo partly drawn) [Compound 111, 3-((2S)-2-hydroxy-3-(8-(3-(6-methylpyridin-3-yl)phenylsulfonyl)-1-oxa-8-azaspiro[4.5]decan-3-ylamino)propoxy)-N-methylbenzenesulfonamide]",0.0263
21,"CNS(=O)(=O)c1cccc(OC[C@@H](O)CNC2COC3(CCN(S(=O)(=O)c4cccc(-c5cncc(C)c5)c4)CC3)C2)c1 (stereo partly drawn) [Compound 110, 3-((2S)-2-hydroxy-3-(8-(3-(5-methylpyridin-3-yl)phenylsulfonyl)-1-oxa-8-azaspiro[4.5]decan-3-ylamino)propoxy)-N-methylbenzenesulfonamide]",0.019
22,"CNS(=O)(=O)c1cccc(OC[C@@H](O)CN[C@H]2COC3(CCN(S(=O)(=O)c4ccc(-c5ccc(CN(C)C)cc5)cc4)CC3)C2)c1 [Compound 405, 3-((S)-3-((R)-8-(4′-((dimethylamino)methyl)biphenyl-4-ylsulfonyl)-1-oxa-8-azaspiro[4.5]decan-3-ylamino)-2-hydroxypropoxy)-N-methylbenzenesulfonamide]",0.0518
23,"CNS(=O)(=O)c1cccc(OC[C@@H](O)CN[C@H]2COC3(CCN(S(=O)(=O)c4ccc(OC)c(C)c4)CC3)C2)c1 [Compound 267, 3-((S)-2-hydroxy-3-((R)-8-(4-methoxy-3-methylphenylsulfonyl)-1-oxa-8-azaspiro[4.5]decan-3-ylamino)propoxy)-N-methylbenzenesulfonamide]",0.00943
24,"CNS(=O)(=O)c1cccc(OC[C@@H](O)CNC2COC3(CCN(S(=O)(=O)c4cccc(CO)c4)CC3)C2)c1 (stereo partly drawn) [Compound 390, 3-((2S)-2-hydroxy-3-(8-(3-(hydroxymethyl)phenylsulfonyl)-1-oxa-8-azaspiro[4.5]decan-3-ylamino)propoxy)-N-methylbenzenesulfonamide]",0.153
25,"CNS(=O)(=O)c1cccc(OC[C@@H](O)CNC2COC3(CCN(S(=O)(=O)c4ccc(Cl)c(OC)c4)CC3)C2)c1 (stereo partly drawn) [Compound 206, 3-((2S)-3-(8-(4-chloro-3-methoxyphenylsulfonyl)-1-oxa-8-azaspiro[4.5]decan-3-ylamino)-2-hydroxypropoxy)-N-methylbenzenesulfonamide]",0.00962
26,"CNS(=O)(=O)c1cccc(OC[C@@H](O)CNC2COC3(CCN(S(=O)(=O)c4cc(Cl)ccc4OC)CC3)C2)c1 (stereo partly drawn) [Compound 148, 3-((2S)-3-(8-(5-chloro-2-methoxyphenylsulfonyl)-1-oxa-8-azaspiro[4.5]decan-3-ylamino)-2-hydroxypropoxy)-N-methylbenzenesulfonamide]",0.011
